PubChem BioAssay (NCI)
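Protocol summary: plate cells (96-well), add compound at 5 concentrations, incubate 48 h, interpolate endpoints linearly. GI50 marks 50% less growth. TGI: concentration producing complete growth inhibition.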

Key:
Assay in all cases: inhibition of tumour cell growth, NCI panel, 48 h
[1] = system: SK-MEL-5 melanoma
[2] = system: SNB-75 CNS
[3] = system: RXF 393 renal
[4] = system: HL-60(TB) leukemia
[5] = system: NCI-H226 lung
[6] = system: HCT-15 colon
[7] = system: OVCAR-8 ovarian
[8] = system: MDA-N
[9] = system: SN12C renal
[10] = system: SW-620 colon
[11] = system: IGROV1 ovarian
[12] = system: HCT-116 colon
[13] = system: MALME-3M melanoma
[14] = system: A498 renal
[15] = system: PC-3 prostate
[16] = system: T-47D breast
[17] = system: SK-MEL-28 melanoma
[18] = system: K-562 leukemia
[19] = system: MDA-MB-231 breast
[20] = system: HT29 colon
[21] = system: SR leukemia
[22] = system: MDA-MB-435
[23] = system: NCI-H23 lung
[24] = system: RPMI-8226 leukemia
[25] = system: DU-145 prostate
[26] = system: NCI-H460 lung
[27] = system: MOLT-4 leukemia
[28] = system: U251 CNS
[29] = system: TK-10 renal
[30] = system: COLO 205 colon
[31] = system: CCRF-CEM leukemia
[32] = system: KM12 colon
[33] = system: OVCAR-5 ovarian
[34] = system: OVCAR-4 ovarian
[35] = system: SF-268 CNS
[36] = system: HOP-62 NSCLC
[37] = system: M14 melanoma
[38] = system: CAKI-1 renal
[39] = system: SK-OV-3 ovarian
[40] = system: UO-31 renal
[41] = system: 786-0 renal
[42] = system: MCF7 breast
[43] = system: NCI/ADR-RES ovarian
[44] = system: A549 NSCLC
[45] = system: UACC-62 melanoma
[46] = system: HS 578T breast
[47] = system: ACHN renal
[48] = system: HCC-2998 colon
[49] = system: LOX IMVI melanoma
[50] = system: SF-539 CNS
[51] = system: HOP-92 NSCLC
[52] = system: BT-549 breast
[53] = system: SNB-19 CNS
[54] = system: UACC-257 melanoma
[55] = system: SK-MEL-2 melanoma
[56] = system: OVCAR-3 ovarian
[57] = system: EKVX NSCLC
[58] = system: SF-295 CNS
[59] = system: NCI-H522 lung

Q: Which GI50 [1] does the source give for `CC1OC(O[C@H]2/C=C/C=C/C=C/C=C/C=C/C=C/C=C/[C@H](C)[C@@H](O)[C@@H](C)[C@H](C)OC(=O)C[C@H](O)C[C@H](O)CC[C@@H](O)[C@H](O)C[C@H](O)C[C@]3(O)C[C@H](O)[C@@H](C(=O)O)[C@H](C2)O3)C(O)C(N)C1O` (stereo not given in full) here?
A: The GI50 was 25.8 µM.

Q: And the TGI [1]?
A: Its TGI is 59 µM.

Q: And the GI50 [2]?
A: The GI50 was 32.7 µM.

Q: And the TGI [2]?
A: The TGI was 61.7 µM.

Q: What about the TGI [3] of the same molecule?
A: The TGI was 18.2 µM.

Q: What about the GI50 [4] of the same molecule?
A: Its GI50 is 3.29 µM.

Q: What about the TGI [4] of the same molecule?
A: The TGI was 30.6 µM.

Q: What about the TGI [5] of the same molecule?
A: Its TGI is greater than 100 µM.

Q: And the GI50 [6]?
A: Its GI50 is 44.7 µM.

Q: What about the TGI [6] of the same molecule?
A: Its TGI is 60.9 µM.

Q: What about the GI50 [7] of the same molecule?
A: The GI50 was 33 µM.

Q: And the TGI [7]?
A: The TGI was 57.6 µM.

Q: And the TGI [8]?
A: Its TGI is 24.4 µM.

Q: And the GI50 [9]?
A: Its GI50 is 2.01 µM.

Q: What about the TGI [9] of the same molecule?
A: Its TGI is 9.15 µM.

Q: What about the TGI [10] of the same molecule?
A: The TGI was 32.8 µM.

Q: What about the TGI [11] of the same molecule?
A: Its TGI is 20.7 µM.

Q: What about the TGI [12] of the same molecule?
A: The TGI was 50.2 µM.

Q: What about the GI50 [13] of the same molecule?
A: Its GI50 is 5.47 µM.

Q: And the TGI [13]?
A: The TGI was 15.3 µM.

Q: What about the GI50 [14] of the same molecule?
A: Its GI50 is 10.4 µM.

Q: And the TGI [14]?
A: Its TGI is 25 µM.

Q: And the TGI [15]?
A: Its TGI is 31.8 µM.

Q: And the GI50 [16]?
A: The GI50 was 52.3 µM.

Q: What about the TGI [16] of the same molecule?
A: The TGI was greater than 86.8 µM.

Q: What about the GI50 [17] of the same molecule?
A: The GI50 was 12 µM.

Q: What about the TGI [17] of the same molecule?
A: Its TGI is 35.2 µM.

Q: And the TGI [18]?
A: Its TGI is greater than 100 µM.

Q: And the GI50 [19]?
A: Its GI50 is 32.9 µM.

Q: What about the TGI [19] of the same molecule?
A: The TGI was 48.2 µM.

Q: And the TGI [20]?
A: Its TGI is 56.4 µM.

Q: And the TGI [21]?
A: Its TGI is 44.8 µM.

Q: What about the GI50 [22] of the same molecule?
A: Its GI50 is 7.94 µM.

Q: And the TGI [22]?
A: Its TGI is 19.3 µM.

Q: What about the GI50 [23] of the same molecule?
A: Its GI50 is 14.3 µM.

Q: And the TGI [23]?
A: The TGI was 34.5 µM.

Q: What about the GI50 [24] of the same molecule?
A: Its GI50 is 23.9 µM.

Q: And the TGI [24]?
A: Its TGI is 60.3 µM.

Q: And the GI50 [25]?
A: The GI50 was 12.7 µM.

Q: And the TGI [25]?
A: The TGI was 39.2 µM.

Q: And the GI50 [26]?
A: The GI50 was 19.1 µM.

Q: And the TGI [26]?
A: The TGI was 40.4 µM.

Q: What about the GI50 [27] of the same molecule?
A: Its GI50 is 29.2 µM.

Q: And the TGI [27]?
A: The TGI was 75.4 µM.

Q: And the GI50 [28]?
A: Its GI50 is 14.3 µM.

Q: And the TGI [28]?
A: The TGI was 40.6 µM.

Q: And the GI50 [29]?
A: Its GI50 is 27.2 µM.

Q: What about the TGI [29] of the same molecule?
A: The TGI was 46.3 µM.

Q: And the TGI [30]?
A: Its TGI is 45.2 µM.

Q: And the GI50 [31]?
A: The GI50 was 9.99 µM.

Q: And the TGI [31]?
A: The TGI was 48.6 µM.

Q: And the TGI [32]?
A: Its TGI is 42.6 µM.

Q: And the GI50 [33]?
A: The GI50 was 27.3 µM.

Q: What about the TGI [33] of the same molecule?
A: Its TGI is 62.3 µM.

Q: And the TGI [34]?
A: The TGI was 51.2 µM.

Q: And the GI50 [35]?
A: The GI50 was 25.6 µM.

Q: What about the TGI [35] of the same molecule?
A: Its TGI is 60.7 µM.

Q: What about the GI50 [36] of the same molecule?
A: Its GI50 is 20.5 µM.

Q: What about the TGI [36] of the same molecule?
A: The TGI was 42.2 µM.

Q: What about the GI50 [37] of the same molecule?
A: Its GI50 is 11 µM.

Q: What about the TGI [37] of the same molecule?
A: Its TGI is 29.2 µM.

Q: And the GI50 [38]?
A: The GI50 was 12.7 µM.

Q: What about the TGI [38] of the same molecule?
A: The TGI was 41.7 µM.

Q: What about the TGI [39] of the same molecule?
A: The TGI was 70.1 µM.

Q: What about the TGI [40] of the same molecule?
A: The TGI was 4.27 µM.

Q: And the TGI [41]?
A: Its TGI is 29.2 µM.

Q: And the TGI [42]?
A: The TGI was 56.1 µM.

Q: And the GI50 [43]?
A: Its GI50 is 24.9 µM.

Q: What about the TGI [43] of the same molecule?
A: The TGI was 56.5 µM.

Q: What about the GI50 [44] of the same molecule?
A: Its GI50 is 9.72 µM.

Q: And the TGI [44]?
A: Its TGI is 34.9 µM.

Q: And the GI50 [45]?
A: Its GI50 is 21.8 µM.

Q: And the TGI [45]?
A: Its TGI is 43.9 µM.

Q: What about the TGI [46] of the same molecule?
A: Its TGI is 27.7 µM.

Q: What about the GI50 [47] of the same molecule?
A: Its GI50 is 6.47 µM.

Q: And the TGI [47]?
A: Its TGI is 20.5 µM.

Q: What about the TGI [48] of the same molecule?
A: The TGI was 61.2 µM.

Q: What about the GI50 [49] of the same molecule?
A: The GI50 was 15.2 µM.

Q: And the TGI [49]?
A: Its TGI is greater than 50.7 µM.

Q: And the GI50 [50]?
A: The GI50 was 19.3 µM.

Q: What about the TGI [50] of the same molecule?
A: Its TGI is 47.3 µM.

Q: And the TGI [51]?
A: The TGI was 52.9 µM.

Q: And the GI50 [52]?
A: The GI50 was 20.6 µM.

Q: What about the TGI [52] of the same molecule?
A: The TGI was 68.1 µM.

Q: And the GI50 [53]?
A: The GI50 was 37.8 µM.

Q: What about the TGI [53] of the same molecule?
A: Its TGI is 50.2 µM.

Q: What about the GI50 [54] of the same molecule?
A: Its GI50 is 12.2 µM.

Q: And the TGI [54]?
A: The TGI was 40.4 µM.

Q: What about the TGI [55] of the same molecule?
A: Its TGI is 59.3 µM.

Q: What about the TGI [56] of the same molecule?
A: The TGI was 27.2 µM.

Q: And the GI50 [57]?
A: The GI50 was 11.1 µM.

Q: What about the TGI [57] of the same molecule?
A: The TGI was 27.8 µM.

Q: And the GI50 [58]?
A: The GI50 was greater than 61.3 µM.

Q: What about the TGI [58] of the same molecule?
A: Its TGI is greater than 72.8 µM.

Q: And the TGI [59]?
A: Its TGI is 20.9 µM.
